Assay results reported in article PMC10177380 (Cancers, 2023).
Where two headings read alike, the source gives them in different places. Marks after values point to notes of the source that are not given here.

Experiments:
HT29 colon cells [1] = test: ROS production, DCFDA/H2DCFDA cellular ROS assay; type: cell-based, human; conditions: treatment at GI50 concentration (TBHP positive control 20 μM)
Description: To determine the presence of ROS in treated cells, a DCFDA/H2DCFDA-cellular ROS Assay Kit (Abcam, Cambridge, MA, USA) was utilised, as previously reported. The ROS potential of platinum(II) precursors and platinum(IV) scaffolds, which were determined using the same method, were also presented in this study for comparison.
Additionally, the ROS potential of the platinum(II) precursors and platinum(IV) scaffolds was determined previously and was presented here to allow for comparison (Table 10 and Figure 13). […] Treatment with the complexes and ligands was completed at each specific GI50 concentration. […]
(§1) dimethylthiazol-2-yl]-2,5-diphenyltetrazolium bromide) assay and absorbance was read at 540 nm. An eight-point dose response curve was produced from which the GI50 value was calculated, representing the drug concentration at which cell growth was inhibited by 50% based on the difference between the optical density values on day 0 and those at the end of drug exposure.
4. Reactive Oxygen Species (ROS) Potential
A total of 25,000 cells/mL of HT29 cells in DMEM were seeded in 96-well plates. Cells were washed with 1X kit buffer, and then stained with 25 μM 2’,7’-dichlorofluorescein diacetate (DCFH-DA) and incubated for 45 min. DCFH-DA was then removed, and cells were then re-washed with 1X kit buffer, after which phenol red free media was added.
Cells were then treated with a GI50 drug concentration for each complex. The plates were directly scanned to measure fluorescence (relative fluorescence units (RFU)) at different time points using the Glo-Max®-Multimode microplate reader (Promega Corporation, Alexandra, VIC, Australia) at an excitation/emission of 485/535 nm. […]

MIA pancreas = test system: MIA pancreas; design: method as in PMID 36296713, PMID 36142383; conditions: cited from earlier work
[2] = test system: non-tumour derived MCF10A breast line; design: method as in PMID 36296713, PMID 36142383; conditions: cited from earlier work
[3] = design: method as in PMID 24951889; conditions: water, from the literature; cited from earlier work
A2780 ovarian = test system: A2780 ovarian; design: method as in PMID 36296713, PMID 36142383; conditions: cited from earlier work
U87 glioblastoma = test system: U87 glioblastoma; design: method as in PMID 36296713, PMID 36142383; conditions: cited from earlier work
[4] = test system: ADDP ovarian variant (cisplatin-resistant A2780 clone); design: method as in PMID 36296713, PMID 36142383; conditions: cited from earlier work
BE2C neuroblastoma = test system: BE2C neuroblastoma; design: method as in PMID 36296713, PMID 36142383; conditions: cited from earlier work
multiple cell lines = test system: multiple cell lines; design: method as in PMID 36296713, PMID 36142383; conditions: mean over all cell lines tested; cited from earlier work
SJG2 glioblastoma = test system: SJG2 glioblastoma; design: method as in PMID 36296713, PMID 36142383; conditions: cited from earlier work
HT29 colon = test system: HT29 colon; design: method as in PMID 36296713, PMID 36142383; conditions: cited from earlier work
Du145 prostate = test system: Du145 prostate; design: method as in PMID 36296713, PMID 36142383; conditions: cited from earlier work
MCF7 breast = test system: MCF7 breast; design: method as in PMID 36296713, PMID 36142383; conditions: cited from earlier work
H460 lung = test system: H460 lung; design: method as in PMID 36296713, PMID 36142383; conditions: cited from earlier work
A431 skin = test system: A431 skin; design: method as in PMID 36296713, PMID 36142383; conditions: cited from earlier work
MCF10A / Du145 = test system: MCF10A / Du145; design: method as in PMID 36296713, PMID 36142383; conditions: GI50 in MCF10A/GI50 in Du145, from data of previous studies; cited from earlier work
HT29 colon cells [5] = test system: HT29 colon cells; design: method as in PMID 36296713, PMID 36142383; conditions: cited from earlier work
HT29 colon cells [6] = test: Mitochondrial membrane potential, TMRE-MtMP assay; type: cell-based, human; conditions: treatment at GI50 concentration (FCCP positive control 20 μM)
Text: To study the MtMP changes in treated cells, a TMRE-MtMP Assay Kit (Abcam, Cambridge, MA, USA) was used (see Supplementary Materials).
TMRE was used to stain HT29 colon cells, and treatment with the complexes and ligands was completed at each specific GI50 concentration. The MtMP changes detected are expressed as RFU. Additionally, lower RFU values correspond to a decline in mitochondrial activity. […]
as §1, with “exposure. […]” for “exposure.”
5. Mitochondrial Membrane Potential (MtMP)
In 96-well plates, 25,000 cells/mL of HT29 colon cells in DMEM were seeded. Cells were treated with a GI50 drug concentration for each complex. […]
washed with PBS and stained with 1 μM tetramethylrhodamine, ethyl ester (TMRE) and incubated for 30 min. TMRE was then removed, and cells were then re-washed with PBS (0.2% BSA), after which phenol red free media was added. The plates were directly scanned to measure fluorescence (expressed as RFU), using the Glo-Max®-Multimode […]
microplate reader (Promega Corporation, Alexandra, VIC, Australia) at an […]
For the positive control, 20 μM carbonyl cyanide 4-(trifluoromethoxy) phenylhydrazone (FCCP)) was added to the cells and incubated for 10 min. The cells were washed with PBS (0.2% BSA) and stained with TMRE (1 μM) for 30 min; this was removed and phenol red free media was added, and the final solution was scanned as mentioned above. […]

CC(C)(C)OO [TBHP, tert-butyl hydroperoxide]
ROS Production (HT29 colon cells [1]; HT29, 24 h): 658 ± 28 RFU
ROS Production (HT29 colon cells [1]; HT29, 48 h): 504 ± 15 RFU
ROS Production (HT29 colon cells [1]; HT29, 72 h): 497 ± 10 RFU

N.N.O=C([O-])C1(C(=O)[O-])CCC1.[Pt+2] [Carboplatin, cis-diammine(1,1-cyclobutanedicarboxylato) platinum(II)]
GI50 (MIA pancreas): > 50 µM
GI50 [2]: > 50 µM
Solubility [3]: 11.7 * mg/mL
GI50 (A2780 ovarian): 9.2 ± 2.9 µM
GI50 (U87 glioblastoma): > 50 µM
GI50 [4]: > 50 µM
GI50 (BE2C neuroblastoma): 19 µM
GI50 (multiple cell lines): 32.2 µM
GI50 (SJG2 glioblastoma): 5.7 ± 0.2 µM
GI50 (HT29 colon): > 50 µM
GI50 (Du145 prostate): 15 µM
GI50 (MCF7 breast): > 50 µM
GI50 (H460 lung): 14 µM
GI50 (A431 skin): 24 µM
Selectivity Cytotoxicity Index (SCI) (MCF10A / Du145): 3.33

Cc1c(C)c2c3c4c1=CC=C[N]4[Pt+2]([OH])([OH])[N]3C=CC=2.N[C@H]1CCCC[C@@H]1N [56MESS(IV)(OH)2]
GI50 (MIA pancreas): 0.043 ± 0.0025 µM
GI50 [2]: 0.061 ± 0.007 µM
GI50 (A2780 ovarian): 0.059 ± 0.007 µM
GI50 (U87 glioblastoma): 0.19 ± 0.023 µM
ROS Production (HT29 colon cells [5]; HT29, 24 h): 259 ± 3 RFU
ROS Production (HT29 colon cells [5]; HT29, 48 h): 356 ± 11 RFU
ROS Production (HT29 colon cells [5]; HT29, 72 h): 438 ± 7 RFU
GI50 [4]: 0.17 ± 0.12 µM
GI50 (BE2C neuroblastoma): 0.24 ± 0.022 µM
MtMP Changes (HT29 colon cells [6]; HT29, 24 h): 245 ± 16 RFU
MtMP Changes (HT29 colon cells [6]; HT29, 48 h): 177 ± 11 RFU
MtMP Changes (HT29 colon cells [6]; HT29, 72 h): 125 ± 12 RFU
GI50 (multiple cell lines): 0.151 ± 0.05 µM
GI50 (SJG2 glioblastoma): 0.21 ± 0.045 µM
GI50 (HT29 colon): 0.036 ± 0.007 µM
GI50 (Du145 prostate): 0.015 ± 0.0026 µM
GI50 (MCF7 breast): 0.48 ± 0.14 µM
GI50 (H460 lung): 0.19 ± 0.15 µM
GI50 (A431 skin): 0.12 ± 0.022 µM
Selectivity Cytotoxicity Index (SCI) (MCF10A / Du145): 4.07

N[C@H]1CCCC[C@@H]1N.[OH][Pt+2]1([OH])[N]2C=CC=c3ccc4c(c32)[N]1C=CC=4 [PHENSS(IV)(OH)2]
GI50 (MIA pancreas): 3.4 ± 2.2 µM
GI50 [2]: 1.7 ± 0.2 µM
GI50 (A2780 ovarian): 0.8 ± 0.084 µM
GI50 (U87 glioblastoma): 4.9 ± 0.61 µM
ROS Production (HT29 colon cells [5]; HT29, 24 h): 144 ± 5 RFU
ROS Production (HT29 colon cells [5]; HT29, 48 h): 273 ± 4 RFU
ROS Production (HT29 colon cells [5]; HT29, 72 h): 303 ± 1 RFU
GI50 [4]: 1.3 ± 0.35 µM
GI50 (BE2C neuroblastoma): 3 ± 0.53 µM
MtMP Changes (HT29 colon cells [6]; HT29, 24 h): 321 ± 17 RFU
MtMP Changes (HT29 colon cells [6]; HT29, 48 h): 241 ± 10 RFU
MtMP Changes (HT29 colon cells [6]; HT29, 72 h): 216 ± 8 RFU
GI50 (multiple cell lines): 3.32 ± 0.88 µM
GI50 (SJG2 glioblastoma): 1.7 ± 0.35 µM
GI50 (HT29 colon): 0.71 ± 0.3 µM
GI50 (Du145 prostate): 0.31 ± 0.092 µM
GI50 (MCF7 breast): 16 µM
GI50 (H460 lung): 1.7 ± 0.2 µM
GI50 (A431 skin): 4.3 ± 0.53 µM
Selectivity Cytotoxicity Index (SCI) (MCF10A / Du145): 5.48

N#CC(C#N)=NNc1ccc(OC(F)(F)F)cc1 [FCCP, carbonyl cyanide 4-(trifluoromethoxy) phenylhydrazone]
MtMP Changes (HT29 colon cells [6]; HT29, 24 h): 194 ± 10 RFU
MtMP Changes (HT29 colon cells [6]; HT29, 48 h): 143 ± 5 RFU
MtMP Changes (HT29 colon cells [6]; HT29, 72 h): 80 ± 5 RFU

Cc1cc2c3c4c1=CC=C[N]4[Pt+2]([OH])([OH])[N]3C=CC=2.N[C@H]1CCCC[C@@H]1N [5MESS(IV)(OH)2]
GI50 (MIA pancreas): 0.16 ± 0.029 µM
GI50 [2]: 0.13 ± 0.019 µM
GI50 (A2780 ovarian): 0.24 ± 0.009 µM
GI50 (U87 glioblastoma): 0.9 ± 0.058 µM
ROS Production (HT29 colon cells [5]; HT29, 24 h): 234 ± 1 RFU
ROS Production (HT29 colon cells [5]; HT29, 48 h): 323 ± 9 RFU
ROS Production (HT29 colon cells [5]; HT29, 72 h): 335 ± 2 RFU
GI50 [4]: 0.13 ± 0.022 µM
GI50 (BE2C neuroblastoma): 1.4 ± 0.3 µM
MtMP Changes (HT29 colon cells [6]; HT29, 24 h): 301 ± 14 RFU
MtMP Changes (HT29 colon cells [6]; HT29, 48 h): 214 ± 9 RFU
MtMP Changes (HT29 colon cells [6]; HT29, 72 h): 198 ± 4 RFU
GI50 (multiple cell lines): 0.443 ± 0.081 µM
GI50 (SJG2 glioblastoma): 0.64 ± 0.07 µM
GI50 (HT29 colon): 0.06 ± 0.006 µM
GI50 (Du145 prostate): 0.041 ± 0.005 µM
GI50 (MCF7 breast): 1.2 ± 0.39 µM
GI50 (H460 lung): 0.06 ± 0.005 µM
GI50 (A431 skin): 0.36 ± 0.058 µM
Selectivity Cytotoxicity Index (SCI) (MCF10A / Du145): 3.17

O=C1[O][Pt]2([NH][C@@H]3CCCC[C@H]3[NH]2)[O]C1=O (relative stereo) [Oxaliplatin, trans-L-(1R,2R-diaminocyclohexane) oxalatoplatinum(II)]
GI50 (MIA pancreas): 0.9 ± 0.2 µM
GI50 (A2780 ovarian): 0.16 ± 0.1 µM
GI50 (U87 glioblastoma): 1.8 ± 0.2 µM
GI50 [4]: 0.8 ± 0.1 µM
GI50 (BE2C neuroblastoma): 0.9 ± 0.2 µM
GI50 (multiple cell lines): 1.46 ± 0.32 µM
GI50 (SJG2 glioblastoma): 3 ± 1.2 µM
GI50 (HT29 colon): 0.9 ± 0.2 µM
GI50 (Du145 prostate): 2.9 ± 0.4 µM
GI50 (MCF7 breast): 0.5 ± 0.1 µM
GI50 (H460 lung): 1.6 ± 0.1 µM
GI50 (A431 skin): 4.1 ± 0.5 µM
